Data reported in ChEMBL document CHEMBL5042510, “Structure-Guided Discovery of Aminoquinazolines as Brain-Penetrant and Selective LRRK2 Inhibitors” (J Med Chem, 2022).
pIC50: −log10 of the molar value. Each block holds one compound with its values, some of them ahead of it.

Assays:
[1] = molecular target: Voltage-gated inwardly rectifying potassium channel KCNH2 (Homo sapiens, UniProt Q12809); assay: Inhibition of human ERG by voltage clamp assay; format: toxicity
[2] = Unbound brain-to-plasma concentration ratio in rat at 2.5 uM incubated for 4 hrs by equilibrium dialysis method; format: ADME, cell-free; settings: brain and plasma (unbound), read-out: K(p,uu,brain)
[3] = Oral bioavailability in Beagle dog at 0.5 mg/kg by LC-MS/MS analysis; format: ADME, organism-based, Canis lupus familiaris; settings: in vivo
[4] = Intrinsic clearance in human hepatocytes at 0.3 uM incubated for 90 mins by LC/MS/MS analysis; format: ADME, cell-based, Hepatocyte; settings: read-out: CLH
rat Mdr1a (P-gp) [5] = assay: Efflux ratio of apparent permeability across basolateral to apical side over apical to basolateral side in rat Mdr1a-transfected pig LLC-PK1 cells at 0.1 to 1 uM measured after 3 hrs by LC/MS/MS analysis; format: ADME, cell-based, Sus scrofa; settings: dose 0.1-1 µM
[6] = molecular target: Leucine-rich repeat serine/threonine-protein kinase 2 (Homo sapiens, UniProt Q5S007, G2019S); assay: Inhibition of recombinant N-terminal GST-fused LRRK2 […] mutant (970 to 2527 residues) (unknown origin) preincubated with enzyme for 15 mins followed by fluorescein-labeled LRRKtide peptide substrate and ATP addition for 90 mins by TR-FRET assay
Chain of Leucine-rich repeat serine/threonine-protein kinase 2 (Q5S007 whole entry G2019S, the tested form may be a part): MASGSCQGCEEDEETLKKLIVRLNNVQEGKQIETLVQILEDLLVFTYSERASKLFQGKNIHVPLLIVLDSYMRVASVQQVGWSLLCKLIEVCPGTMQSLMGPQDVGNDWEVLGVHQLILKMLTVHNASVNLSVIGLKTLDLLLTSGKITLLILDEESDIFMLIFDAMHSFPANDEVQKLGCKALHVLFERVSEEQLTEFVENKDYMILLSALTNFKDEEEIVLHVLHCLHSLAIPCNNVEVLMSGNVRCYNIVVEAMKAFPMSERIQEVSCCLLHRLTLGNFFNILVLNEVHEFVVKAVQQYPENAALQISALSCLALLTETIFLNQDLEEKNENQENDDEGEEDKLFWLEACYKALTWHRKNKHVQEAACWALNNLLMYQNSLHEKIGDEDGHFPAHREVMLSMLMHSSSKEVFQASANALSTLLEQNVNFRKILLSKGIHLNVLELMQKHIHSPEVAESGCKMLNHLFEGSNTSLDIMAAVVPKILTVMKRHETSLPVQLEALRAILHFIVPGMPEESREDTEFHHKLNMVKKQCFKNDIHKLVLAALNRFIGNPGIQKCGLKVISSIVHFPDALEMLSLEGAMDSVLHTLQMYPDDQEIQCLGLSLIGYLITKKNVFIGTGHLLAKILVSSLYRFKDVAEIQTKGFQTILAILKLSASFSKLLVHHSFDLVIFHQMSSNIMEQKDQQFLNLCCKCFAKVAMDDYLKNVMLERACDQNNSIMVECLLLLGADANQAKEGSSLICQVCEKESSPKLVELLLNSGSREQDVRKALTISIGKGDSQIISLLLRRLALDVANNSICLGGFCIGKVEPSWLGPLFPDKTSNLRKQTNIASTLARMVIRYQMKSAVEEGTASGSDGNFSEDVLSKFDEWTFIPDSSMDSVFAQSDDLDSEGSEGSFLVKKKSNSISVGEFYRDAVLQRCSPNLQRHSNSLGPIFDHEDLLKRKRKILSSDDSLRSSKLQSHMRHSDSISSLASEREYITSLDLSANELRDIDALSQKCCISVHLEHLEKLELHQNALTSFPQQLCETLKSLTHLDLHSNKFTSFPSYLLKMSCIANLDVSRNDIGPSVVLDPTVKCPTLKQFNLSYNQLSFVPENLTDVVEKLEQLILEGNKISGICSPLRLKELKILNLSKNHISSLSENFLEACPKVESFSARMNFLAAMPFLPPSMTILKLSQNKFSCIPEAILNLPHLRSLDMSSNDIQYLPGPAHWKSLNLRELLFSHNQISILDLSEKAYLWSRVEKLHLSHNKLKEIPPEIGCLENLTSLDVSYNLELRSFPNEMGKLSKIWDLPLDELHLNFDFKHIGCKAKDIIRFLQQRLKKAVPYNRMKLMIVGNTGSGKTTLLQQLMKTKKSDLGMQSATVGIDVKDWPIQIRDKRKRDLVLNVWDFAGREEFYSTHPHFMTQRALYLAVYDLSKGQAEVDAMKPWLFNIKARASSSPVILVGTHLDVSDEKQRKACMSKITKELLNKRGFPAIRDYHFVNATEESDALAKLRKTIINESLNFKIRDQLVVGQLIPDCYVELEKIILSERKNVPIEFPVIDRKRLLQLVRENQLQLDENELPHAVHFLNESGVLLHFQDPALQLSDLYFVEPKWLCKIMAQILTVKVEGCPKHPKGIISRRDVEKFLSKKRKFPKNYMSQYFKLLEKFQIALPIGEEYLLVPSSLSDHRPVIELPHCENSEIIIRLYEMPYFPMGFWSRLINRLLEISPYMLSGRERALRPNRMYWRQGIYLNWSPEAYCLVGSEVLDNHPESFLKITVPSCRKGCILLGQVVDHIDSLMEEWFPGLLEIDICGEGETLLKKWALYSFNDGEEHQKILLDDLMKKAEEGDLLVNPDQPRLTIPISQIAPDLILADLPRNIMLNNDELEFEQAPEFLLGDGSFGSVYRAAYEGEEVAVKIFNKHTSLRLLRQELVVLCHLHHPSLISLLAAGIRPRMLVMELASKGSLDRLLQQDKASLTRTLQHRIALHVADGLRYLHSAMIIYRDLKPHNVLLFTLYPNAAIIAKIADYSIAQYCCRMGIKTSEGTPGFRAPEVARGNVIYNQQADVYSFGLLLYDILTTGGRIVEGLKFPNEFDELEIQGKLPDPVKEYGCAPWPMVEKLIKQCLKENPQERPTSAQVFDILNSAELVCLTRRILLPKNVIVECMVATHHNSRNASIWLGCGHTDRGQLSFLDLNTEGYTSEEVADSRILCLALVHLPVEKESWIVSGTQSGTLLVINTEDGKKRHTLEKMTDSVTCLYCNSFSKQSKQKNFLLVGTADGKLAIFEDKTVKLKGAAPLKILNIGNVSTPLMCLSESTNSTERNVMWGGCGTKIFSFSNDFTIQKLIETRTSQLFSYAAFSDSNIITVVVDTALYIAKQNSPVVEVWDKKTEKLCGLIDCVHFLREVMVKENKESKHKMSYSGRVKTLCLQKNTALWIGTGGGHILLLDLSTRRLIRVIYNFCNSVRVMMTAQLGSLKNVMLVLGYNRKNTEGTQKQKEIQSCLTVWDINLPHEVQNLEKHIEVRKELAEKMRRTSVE

[7] = MRT in Wistar Han rat at 2 mg/kg, iv by LC-MS/MS analysis; format: ADME, organism-based; settings: in vivo
[8] = Total plasma clearance in Beagle dog at 0.25 mg/kg, iv by LC-MS/MS analysis; format: ADME, organism-based, Canis lupus familiaris
Homo sapiens [9] = species: Homo sapiens; assay: Selectivity ratio of IC50 for AURKA (unknown origin) to IC50 for LRRK2 (unknown origin)
[10] = Intrinsic clearance in Wistar Han rat at 2 mg/kg, iv by LC-MS/MS analysis; format: ADME, organism-based; settings: in vivo
[11] = Toxicity in rat assessed as positive heart transcriptional score at 300 mg/kg, po qd administered for 4 days; format: organism-based; settings: in vivo, 96 h, time 4 day
mouse Bcrp = assay: Efflux ratio of apparent permeability across basolateral to apical over apical to basolateral side in mouse Bcrp-transfected dog MDCK-II cells at 0.1 to 1 uM measured after 3 hrs by LC/MS/MS analysis; format: ADME, cell-based, Canis lupus familiaris; settings: dose 0.1-1 µM
[12] = In vivo inhibition of LRRK2 in po dosed CD rat assessed as unbound concentration required for reduction in phosphorylation at Ser935 residue in striatum measured after 2 hrs by MSD assay; format: functional
[13] = molecular target: T1, 5-hydroxytryptamine receptor 1A (Homo sapiens) (UniProt P08908); assay: Inhibition of human 5HT1A receptor at 10 uM
T1 sequence (whole entry): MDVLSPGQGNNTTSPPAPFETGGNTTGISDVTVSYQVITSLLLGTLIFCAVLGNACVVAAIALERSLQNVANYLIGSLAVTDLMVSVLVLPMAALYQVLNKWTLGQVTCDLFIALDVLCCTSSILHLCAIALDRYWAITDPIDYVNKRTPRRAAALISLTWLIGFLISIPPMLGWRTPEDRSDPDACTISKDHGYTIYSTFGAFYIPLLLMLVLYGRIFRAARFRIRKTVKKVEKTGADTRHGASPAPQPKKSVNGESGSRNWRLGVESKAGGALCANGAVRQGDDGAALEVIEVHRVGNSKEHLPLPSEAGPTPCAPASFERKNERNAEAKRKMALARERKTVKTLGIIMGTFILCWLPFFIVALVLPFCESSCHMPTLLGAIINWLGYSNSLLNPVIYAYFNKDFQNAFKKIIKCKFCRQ

[14] = MRT in Beagle dog at 0.25 mg/kg, iv by LC-MS/MS analysis; format: ADME, organism-based, Canis lupus familiaris; settings: in vivo
[15] = tested on: Leucine-rich repeat serine/threonine-protein kinase 2 (Homo sapiens), Q5S007 [G2019S]; assay: Inhibition of LRRK2 […] mutant expressed in human SH-SY5Y cells assessed as unbound concentration required for inhibition of phosphorylation of LRRK2 at Ser935 residue incubated for 90 mins by MSD assay; format: cell-based
Chain of Leucine-rich repeat serine/threonine-protein kinase 2 (Homo sapiens), Q5S007 [G2019S] (Q5S007 whole entry G2019S): as the sequence (Q5S007 whole entry G2019S, the tested form may be a part) above

[16] = Total plasma clearance in Wistar Han rat at 2 mg/kg, iv by LC-MS/MS analysis; format: ADME, organism-based
Salmonella typhimurium [17] = assay: Mutagenicity in Salmonella typhimurium TA100 at 30 to 5000 ug incubated for 48 hrs in presence of liver S9 fraction by AMES test; format: toxicity, organism-based, Salmonella enterica subsp. enterica serovar Typhimurium; settings: s9, 48 h, dose 30-5000 µg
Homo sapiens [18] = species: Homo sapiens; assay: Selectivity ratio of IC50 for PRKCZ (unknown origin) to IC50 for LRRK2 (unknown origin)
[19] = Toxicity in rat assessed as positive liver transcriptional score at 300 mg/kg, po qd administered for 4 days; format: organism-based; settings: in vivo, 96 h, time 4 day
[20] = Toxicity in rat assessed as drug tolerability at 25 to 300 mg/kg, po qd administered for 4 days; format: organism-based; settings: in vivo, 96 h, dose 25-300 mg/kg, time 4 day
Salmonella typhimurium [21] = assay: Mutagenicity in Salmonella typhimurium TA1535 at 30 to 5000 ug incubated for 48 hrs in presence of liver S9 fraction by AMES test; format: toxicity, organism-based, Salmonella enterica subsp. enterica serovar Typhimurium; settings: s9, 48 h, dose 30-5000 µg
[22] = Intrinsic clearance in rat hepatocytes at 0.3 uM incubated for 90 mins by LC/MS/MS analysis; format: ADME, cell-based, Hepatocyte; settings: read-out: CLH
[23] = Oral bioavailability in Wistar Han rat at 10 mg/kg by LC-MS/MS analysis; format: ADME, organism-based; settings: in vivo
Salmonella typhimurium [24] = assay: Mutagenicity in Salmonella typhimurium TA98 at 30 to 5000 ug incubated for 48 hrs in presence of liver S9 fraction by AMES test; format: toxicity, organism-based, Salmonella enterica subsp. enterica serovar Typhimurium; settings: s9, 48 h, dose 30-5000 µg
[25] = Toxicity in rat assessed as body weight loss at 300 mg/kg, po qd administered for 4 days; format: organism-based; settings: in vivo, 96 h, time 4 day
[26] = Intrinsic clearance in dog hepatocytes at 0.3 uM incubated for 90 mins by LC/MS/MS analysis; format: ADME, cell-based, Canis lupus familiaris, Hepatocyte; settings: read-out: CLH
Homo sapiens [27] = species: Homo sapiens; assay: Selectivity ratio of IC50 for MAP3K8 (unknown origin) to IC50 for LRRK2 (unknown origin)
[28] = Toxicity in rat assessed as elevation of liver enzyme biomarker levels at 300 mg/kg, po qd administered for 4 days; format: organism-based; settings: in vivo, 96 h, time 4 day
rat Mdr1a (P-gp) [29] = assay: Apparent permeability from apical to basolateral side in rat Mdr1a-transfected pig LLC-PK1 cells at 0.1 to 1 uM measured after 3 hrs by LC/MS/MS analysis; format: ADME, cell-based, Sus scrofa; settings: dose 0.1-1 µM
[30] = Intrinsic clearance in Beagle dog at 0.25 mg/kg, iv by LC-MS/MS analysis; format: ADME, organism-based, Canis lupus familiaris; settings: in vivo
[31] = Unbound brain-to-plasma concentration ratio in non-human primates by positron emission tomography; format: ADME; settings: brain and plasma (unbound), read-out: K(p,uu,brain)
human MDR1 (P-gp) = assay: Efflux ratio of apparent permeability across basolateral to apical side over apical to basolateral side in human MDR1-transfected dog MDCKII-MDR1 cells at 0.1 to 1 uM measured after 3 hrs by LC/MS/MS analysis; format: ADME, cell-based, Canis lupus familiaris; settings: MDCK-MDR1, dose 0.1-1 µM

Chain of Voltage-gated inwardly rectifying potassium channel KCNH2 (Q12809 whole entry): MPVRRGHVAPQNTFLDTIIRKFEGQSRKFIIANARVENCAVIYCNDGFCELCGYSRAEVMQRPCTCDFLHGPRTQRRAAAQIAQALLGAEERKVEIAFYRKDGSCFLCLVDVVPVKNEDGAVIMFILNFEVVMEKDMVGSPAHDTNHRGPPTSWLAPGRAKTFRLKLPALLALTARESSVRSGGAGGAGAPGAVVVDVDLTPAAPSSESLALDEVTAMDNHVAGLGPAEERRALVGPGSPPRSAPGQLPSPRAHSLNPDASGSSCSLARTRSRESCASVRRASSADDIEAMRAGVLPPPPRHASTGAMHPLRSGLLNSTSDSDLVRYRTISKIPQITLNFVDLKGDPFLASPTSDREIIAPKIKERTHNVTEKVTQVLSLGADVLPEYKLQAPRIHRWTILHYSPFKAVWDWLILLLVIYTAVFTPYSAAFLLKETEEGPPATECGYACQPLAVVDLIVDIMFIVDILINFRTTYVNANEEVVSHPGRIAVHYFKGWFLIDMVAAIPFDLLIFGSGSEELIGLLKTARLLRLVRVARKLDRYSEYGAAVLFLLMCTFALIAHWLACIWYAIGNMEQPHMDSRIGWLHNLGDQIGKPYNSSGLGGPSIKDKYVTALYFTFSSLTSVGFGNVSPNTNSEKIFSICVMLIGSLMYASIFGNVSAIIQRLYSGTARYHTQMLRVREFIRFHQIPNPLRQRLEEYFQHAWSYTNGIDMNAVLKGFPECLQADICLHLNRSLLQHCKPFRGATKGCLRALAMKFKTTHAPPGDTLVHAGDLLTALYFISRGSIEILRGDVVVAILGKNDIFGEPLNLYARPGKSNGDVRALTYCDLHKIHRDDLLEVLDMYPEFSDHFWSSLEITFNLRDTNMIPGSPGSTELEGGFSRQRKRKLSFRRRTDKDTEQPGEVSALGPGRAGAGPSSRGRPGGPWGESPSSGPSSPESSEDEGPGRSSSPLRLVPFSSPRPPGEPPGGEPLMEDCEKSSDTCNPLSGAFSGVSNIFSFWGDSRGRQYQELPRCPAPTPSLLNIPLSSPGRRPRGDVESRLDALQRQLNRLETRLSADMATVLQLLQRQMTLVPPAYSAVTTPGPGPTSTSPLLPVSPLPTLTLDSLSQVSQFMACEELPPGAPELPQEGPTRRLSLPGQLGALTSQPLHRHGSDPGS

Kp uu at 4 h, 2.5 µM [2]: 0.3 | bioavailability [3]: 85% | CLint scaled at 0.3 µM [4]: 132 mL/min/kg | efflux ratio at 3 h, up to 1 µM (rat Mdr1a (P-gp) [5]): 4.2 | pIC50 [6]: 9.10 | MRT [7]: 2.7 h | clearance [8]: 7 mL/min/kg | Ratio IC50 (Homo sapiens [9]): < 100 | CL [10]: 175 mL/min/kg | efflux ratio at 3 h, up to 1 µM (mouse Bcrp): 4.2 | inhibition [13]: > 50% | MRT [14]: 7.8 h | fIC50 [15]: 58 nM | clearance [16]: 11 mL/min/kg | Ratio IC50 (Homo sapiens [18]): < 100 | CLint scaled at 0.3 µM [22]: 311 mL/min/kg | bioavailability [23]: 95% | CLint scaled at 0.3 µM [26]: 150 mL/min/kg | Ratio IC50 (Homo sapiens [27]): < 100 | Papp A→B at 3 h, up to 1 µM (rat Mdr1a (P-gp) [29]): 33 ×10⁻⁶ cm/s | CL [30]: 63 mL/min/kg
SMILES: CC(C)(O)Cn1ncc(Nc2ncc3cc(Cl)c(C4CCN(C5COC5)CC4)cc3n2)c1Cl
pIC50 [1]: 4.64 | Activity [11]: Toxic | fIC50 [12]: 68 nM | Activity (Salmonella typhimurium [17]): Non-Toxic | Activity [19]: Toxic | Activity [20]: Non-Toxic | Activity (Salmonella typhimurium [21]): Non-Toxic | Activity (Salmonella typhimurium [24]): Non-Toxic | Activity [25]: 11% | Activity [28]: Toxic

Kp uu [31]: 0.52 | Kp uu at 4 h, 2.5 µM [2]: 1.3 | efflux ratio at 3 h, up to 1 µM (human MDR1 (P-gp)): 0.41
SMILES: COc1cc2ncnc(Nc3cccc(Cl)c3F)c2cc1OC(=O)N1CCN(C)C[C@H]1C [AZD-3759]
